Legend:
[1] = test system: Stellaria media, Lolium multiflorum, Amaranthus retroflexus, Sinapis alba, Avena sativa and Setaria viridis; test: Pre-emergence herbicidal action (greenhouse pot test); format: in vivo; conditions: application rate of 1 kg or less of active substance per hectare; scored visually after 3 to 4 weeks in comparison to untreated controls
From the text: Seeds or rhizome pieces of mono- and dicotyledonous weed plants were placed in sandy loam in plastic pots and covered with soil. The inventive compounds, which have been formulated in the form of wettable powders or emulsion concentrates, were then applied to the surface of the covering soil as an aqueous suspension or emulsion in different dosages with an application rate of from 600 to 800 l/ha of water (converted).

[2] = test system: Sinapis alba, Echinochloa crus-galli, Lolium multiflorum, Stellaria media, Cyperus iria, Amaranthus retroflexus, Setaria viridis, Avena sativa, Lamium …; test: Post-emergence herbicidal action (greenhouse pot test); format: in vivo; conditions: application rate of 1 kg and less of active substance per hectare; treated at three-leaf stage; scored visually after approx. 3 to 4 weeks in comparison to untreated controls
Experimental: Seeds or rhizome pieces of mono- and dicotyledonous weeds were placed in sandy loam in plastic pots, covered with soil and grown in a greenhouse under good growth conditions. Three weeks after the sowing, the test plants were treated at the three-leaf stage. The inventive compounds formulated as spray powders or as emulsion concentrates were sprayed onto the green plant parts in various dosages with an application rate of from 600 to 800 l/ha of water (converted). After the test plants had been left to stand in the greenhouse under optimal growth conditions for approx. 3 to 4 weeks, the action of the preparations was scored visually in comparison to untreated controls. The inventive compositions also had good post-emergence herbicidal activity against a wide spectrum of economically important gramineous and broadleaf weeds.

Row | Structure (SMILES) | herbicidal action against harmful plants in the pre-emergence method [1] | herbicidal action against harmful plants in the post-emergence method [2]
1 | Cc1ccc2c(c1)[C@H](Nc1ncnc(C=O)n1)[C@H](C)C2 [Compound 2.194] | very good herbicidal action | very good herbicidal action
2 | CCC(=O)Nc1nc(NC2CCOc3c(C)cc(F)cc32)nc(C(C)Cc2ccc(F)cc2)n1 (racemic) [Compound 1.38] | very good herbicidal action | very good herbicidal action
3 | COCc1nc(NC(C)=O)nc(NC2CCCc3c(C)cc(C)cc32)n1 (racemic) [Compound 1.39] | very good herbicidal action | very good herbicidal action
4 | Cc1ccc2c(c1)C(Nc1nc(NC(=O)C(Cl)(Cl)Cl)nc(C(C)F)n1)CCO2 (racemic) [Compound 1.51] | very good herbicidal action | very good herbicidal action
5 | CC(=Nc1nc(N[C@H]2c3cc(C)ccc3C[C@@H]2C)nc([C@@H](C)F)n1)N(C)C [Compound 2.156] | very good herbicidal action | very good herbicidal action
6 | COCc1nc(NC(C)=O)nc(NC2CCc3ccccc32)n1 (racemic) [Compound 1.32] | very good herbicidal action | very good herbicidal action
7 | CC(=O)Nc1ncnc(N[C@@H]2CCCc3ccccc32)n1 [Compound 2.1, N1-{4-[(1R)-1,2,3,4-Tetrahydro-1-naphthylamino]-1,3,5-triazin-2-yl}acetamide] | very good herbicidal action | very good herbicidal action
8 | COc1ccc(NC(=O)Nc2nc(NC3c4cc(C)ccc4CC3C)nc(C(C)F)n2)cc1 (stereo not shown) [Compound 2.122] | very good herbicidal action | very good herbicidal action
9 | CC(=O)Nc1ncnc(NC2CCOc3ccc(C)cc32)n1 (racemic) [Compound 1.47] | very good herbicidal action | very good herbicidal action
10 | Cc1ccc2c(c1)C(Nc1nc(NC(=O)Nc3ccccc3)nc(C(C)F)n1)C(C)C2 (stereo not shown) [Compound 2.115] | very good herbicidal action | very good herbicidal action
11 | Cc1ccc(NC(=O)Nc2ncnc(NC3c4cc(C)ccc4CC3C)n2)cc1 (stereo not shown) [Compound 2.60] | very good herbicidal action | very good herbicidal action
12 | Cc1ccc(NC(=S)Nc2nc(NC3c4cc(C)ccc4CC3C)nc(C(C)F)n2)cc1 (stereo not shown) [Compound 2.128] | very good herbicidal action | very good herbicidal action
13 | CCCCCCNC(=O)Nc1nc(NC2c3cc(C)ccc3CC2C)nc(C(C)F)n1 (stereo not shown) [Compound 2.88] | very good herbicidal action | very good herbicidal action
14 | Cc1ccc2c(c1)C(Nc1nc(NC(=S)NC(C)(C)C)nc(C(C)F)n1)C(C)C2 (stereo not shown) [Compound 2.76] | very good herbicidal action | very good herbicidal action
15 | CC1Cc2ccc(F)cc2C1Nc1nc(CF)nc(NC(=O)C(Cl)(Cl)Cl)n1 (racemic) [Compound 1.14] | very good herbicidal action | very good herbicidal action
16 | Cc1ccc2c(c1)[C@H](Nc1nc(C=O)nc(C(F)F)n1)[C@H](C)C2 [Compound 2.190] | very good herbicidal action | very good herbicidal action
17 | Cc1ccc2c(c1)C(Nc1nc(NC(=S)Nc3ccccc3)nc(C(C)F)n1)C(C)C2 (stereo not shown) [Compound 2.127] | very good herbicidal action | very good herbicidal action
18 | Cc1ccc2c(c1)[C@H](Nc1nc(N=CN(C)C)nc([C@@H](C)F)n1)[C@@H](C)C2 [Compound 2.153] | very good herbicidal action | very good herbicidal action
19 | COc1cccc(NC(=O)Nc2nc(N[C@H]3c4cc(C)ccc4C[C@@H]3C)nc([C@@H](C)F)n2)c1 [Compound 2.140] | very good herbicidal action | very good herbicidal action
20 | CCOC(=O)CNC(=O)Nc1nc(NC2c3cc(C)ccc3CC2C)nc(C(C)F)n1 (stereo not shown) [Compound 2.111] | very good herbicidal action | very good herbicidal action
21 | Cc1ccc2c(c1)[C@H](Nc1nc(C=O)nc([C@@H](C)F)n1)[C@H](C)C2 [Compound 2.195] | very good herbicidal action | very good herbicidal action
22 | Cc1ccc2c(c1)C(Nc1nc(NC(=O)NC3CCCC3)nc(C(C)F)n1)C(C)C2 (stereo not shown) [Compound 2.101] | very good herbicidal action | very good herbicidal action
23 | Cc1ccc2c(c1)C(Nc1nc(NC(=S)NCc3ccccc3)nc(C(C)F)n1)C(C)C2 (stereo not shown) [Compound 2.131] | very good herbicidal action | very good herbicidal action
24 | CC1Cc2ccc(F)cc2C1Nc1ncnc(NC(=O)CCl)n1 (racemic) [Compound 1.4] | very good herbicidal action | very good herbicidal action
25 | CC(=Nc1ncnc(N[C@H]2c3cc(C)ccc3C[C@@H]2C)n1)N(C)C [Compound 2.160] | very good herbicidal action | very good herbicidal action
26 | COC(C)(C)CNC(=S)Nc1nc(NC2c3cc(C)ccc3CC2C)nc(C(C)F)n1 (stereo not shown) [Compound 2.114] | very good herbicidal action | very good herbicidal action
27 | Cc1ccc2c(c1)C(Nc1nc(NC(=O)NC(C)C)nc(C(C)F)n1)C(C)C2 (stereo not shown) [Compound 2.78] | very good herbicidal action | very good herbicidal action
28 | CCCCNC(=O)Nc1nc(NC2c3cc(C)ccc3CC2C)nc(C(C)F)n1 (stereo not shown) [Compound 2.87] | very good herbicidal action | very good herbicidal action
29 | CC(=O)Nc1nc(N[C@H]2c3cc(C)ccc3C[C@@H]2C)nc(C(F)F)n1 [Compound 2.149] | very good herbicidal action | very good herbicidal action
